4 compounds from patent US20230068020A1, “MACROLIDE COMPOUND AND ITS USE OF TREATMENT CHRONIC RESPIRATORY DISEASE” (priority 2020, published 2023) can be followed below.

Structures are written as SMILES. A value given as a limit tells only on which side of the number the result lay.

Common to all, as to format: cell-based
The test system of data set [1] is Acinetobacter baumannii ATCC-BAA-1605. Description: Antibacterial activity, agar dilution MIC. The note with it: ATCCBAA1605, 20-24 hrs incubation, read-out: minimum inhibitory concentration MIC. How it is done:
(§1) The antibacterial activity of Erythromycin and compounds of examples were evaluated by the agar dilution method, following the guidelines of the CLSI. […] Briefly, bacteria were grown overnight in adapted media (MHIIA with 5% of sheep blood for Streptococcus pneumoniae and Haemophilus influenzae, and MHIIA for the other bacteria strains) at 35° C., 5% CO2.
(§2) Cultures were centrifuged at 3000×g for 15 min. Pellets were diluted with 5 mls cold PBS and the OD600nm was adjusted to 10^8 CFU.mL^−1 with a spectrometer. Bacteria were then added to 96-well test plates. Compounds were diluted in DMSO in a 2 fold steps from 20 mg/ml in DMSO in 96 well plated and transferred to the test plate. During the incubation, the plate was maintained at 35° C., 5% CO2.
(§3) The MICs for Erythromycin and compounds of examples were determined after 20-24 hrs incubation.
In general terms: In agar dilution, organisms are placed on agar that contains the substance at set levels.

The subject of data set [2] is Acinetobacter baumanii ATCC 17978. Description: Antibacterial activity, agar dilution MIC. Conditions: Acinetobacter baumannii, ATCC17978, 20-24 hrs incubation, read-out: minimum inhibitory concentration MIC. How it is done: as §1, §2, §3
Data set [3] deals with Staphylococcus aureus NRS 384. Description: Antibacterial activity, agar dilution MIC. Conditions: NRS384, 20-24 hrs incubation, read-out: minimum inhibitory concentration MIC. The procedure:
as §1, §2, §3

The test system of data set [4] is Enterococcus faecalis ATCC 29212. Description: Antibacterial activity, agar dilution MIC. Conditions: ATCC29212, 20-24 hrs incubation, read-out: minimum inhibitory concentration MIC. The procedure: as §1, §2, §3
The test system of data set [5] is Streptococcus pneumoniae ATCC 49619. Description: Antibacterial activity, agar dilution MIC. Conditions: ATCC49619, 20-24 hrs incubation, read-out: minimum inhibitory concentration MIC. The procedure: as §1, §2, §3
Data set [6] deals with Streptococcus pneumoniae ATCC 6301. Description: Antibacterial activity, agar dilution MIC. Conditions: ATCC6301, 20-24 hrs incubation, read-out: minimum inhibitory concentration MIC. The procedure:
as §1, §2, §3

Data set [7] deals with Staphylococcus aureus ATCC 29213. Description: Antibacterial activity, agar dilution MIC. The note with it: ATCC29213, 20-24 hrs incubation, read-out: minimum inhibitory concentration MIC. How it is done: as §1, §2, §3
The test system of data set [8] is Streptococcus pyogenes ATCC BAA-572. Description: Antibacterial activity, agar dilution MIC. The note with it: ATCCBAA572, 20-24 hrs incubation, read-out: minimum inhibitory concentration MIC. The procedure:
as §1, §2, §3

Data set [9] deals with Moraxella catarrhalis ATCC 43617. Description: Antibacterial activity, agar dilution MIC. Conditions: ATCC43617, 20-24 hrs incubation, read-out: minimum inhibitory concentration MIC. The procedure: as §1, §2, §3
Data set [10] concerns Haemophilus influenzae ATCC 49247. Description: Antibacterial activity, agar dilution MIC. The note with it: ATCC49247, 20-24 hrs incubation, read-out: minimum inhibitory concentration MIC. How it is done: as §1, §2, §3
Data set [11] deals with IL-8 expression in BEAS-2B cell. Description: LPS induced IL-8 release by BEAS-2B (ELISA). The note with it: for Maximum Inhibition: IL-8 expression in BEAS-2B cells, LPS; for IC10: concentration inhibiting IL-8 production on BEAS-2B by 10%, LPS 20 μg/mL. The procedure:
The inhibitory effect of compounds of Examples on the IL-8 expression in BEAS-2B cell was tested using the following method. BEAS-2B was purchased from ATCC (American Type Culture Collection, Manassas, Va.). Cells were maintained in growth medium (LHC-9) and cultured at 37° C. under 5% CO2. Compounds were dissolved in 0.1% DMSO. Erythromycin was used as a positive control.
For the assessment of the effect of compounds of Examples on IL-8 expression inhibition in BEAS-2B cell line, cells were plated in 24 well plate at a density of 100,000/mL, in a final volume of 1 mL of assay medium. Cells were incubated at 37° C., 5% CO2 for 1 day. After the incubation, compounds were added at day 2 and LPS was added at day 3. A compound source plate was prepared by triplicate five-point 10-fold or 2-fold serial dilutions in DMSO, beginning at 1 mM (final top concentration of compounds of Examples in the assay was 100 μM and the DMSO was 0.1%). The positive control consisted of cells treated with 100 μM erythromycin and negative control was consisted of 0.1% DMSO treated cells. LPS stock solution at 5 mg/mL was made by dissolving 10 mg of LPS powder into 2 mL of ddH2O and aliquoted to 100 μL per vial. Final concentration of LPS in the assay was […] by making 125-fold dilution of stock solution with medium.
Specific immunoreactivity for IL-8 in culture supernatants were measured by a commercially available ELISA kits (R&D Systems, Inc., Minneapolis, Minn.). Each sample was assayed in duplicates as recommended by the manufacture. The concentration of compounds of Examples inhibiting IL-8 production on BEAS-2B by 10% was estimated from a 4-parametric of the normalized dose response curve. (IC10)
On the technique in general: In an ELISA, binding on a coated surface is turned into a signal by an enzyme label.

In data set [12] the test system is THP-1 cell. Description: Differentiation of monocyte to macrophage in THP-1 cell line. Conditions: Homo sapiens; for EC50: THP-1 differentiate to macrophage, PMA, 96 hrs incubation; for Emax: ratio of best effect of compound to that of erythromycin 100 uM, THP-1 differentiation, read-out: Maximal activation level. How it is done: The THP-1 cell line was purchased from ATCC (American Type Culture Collection, Manassas, Va.). Cells were maintained in growth medium (RPMI-1640) with supplemented with 10% heat inactivated bovine serum, 100× Glutamax medium and 0.05 mM β-Mercaptoethanol at 37° C. under 5% CO2. Compounds were dissolved in 0.1% DMSO. Erythromycin was used as a positive control.
For the assessment of the effect of compounds of the present invention on differentiation of monocyte to macrophage in THP-1 cell line, cells were collected and centrifuged at 900 rpm for 4 minutes. The cell density was adjusted to 2.5×10^5/mL. cell suspension of 400 μL was added to each well of 48-well plate following the plate layout. PMA 1 mg, a compound can induce monocyte differentiation, was dissolved in 10 mL DMSO to form 100 μg/mL solution and aliquote it into 1 mL per vial. 1 mL solution can be further aliquoted into 10 μL per vial and stored the aliquots at −20° C. Make 10-fold dilution of PMA with DMSO and then 500-fold dilution with complete medium. 50 μL solution were then added to each well of 48-well plate following the plate layout. Erythromycin and compounds of examples at stock concentration of 10 mM was serially diluted at 10-fold in DMSO. 50 μL solution was added to each well of 48-well plate following the plate layout. After 96 hrs incubation at 37° C., 5% CO2, the plate was washed with DPBS for three times to remove non-adherent cells for three times. Complete medium 180 μL and alarmar blue 20 μL was added to each well. The fluorescent intensity was read at excitation 530 nm and emission 590 nm using PerkinElmer Victor3 after 3 hours plate incubation.
The differentiation activity of compounds of Examples is compared to that of 100 μM erythromycin and the results are shown in FIG. 1 and Table 3.

The subject of data set [13] is BEAS-2B cell. Description: Cell viability (LD10) in BEAS-2B IL-8 test. The note with it: BEAS-2B cell viability. The source says: The lethal dose (LD10) is the dosage of a compound that reduces the cell viability by […], and is estimated from non-linear logistic regression.
Data set [14] deals with THP-1 cell. Description: Cell viability (LD50) in THP-1 differentiation test. Conditions: human. How it is done: The medium lethal dose (LD50) is the dosage of a compound that reduces the cell viability by 50%, and is determined using non-linear logistic regression.

For `CC[C@H]1OC(=O)[C@H](C)[C@@H](OC2CC(C)(OC)C(O)C(C)O2)[C@H](C)[C@@H](OC2CC(N(C)C(C)=O)CC(C)O2)C(C)(O)C[C@@H](C)C(=O)[C@H](C)[C@@H](O)[C@]1(C)O` (stereo in doubt) [LY101-22, N-((2S,4S,6R)-2-(((3R,4S,5S,6R,7R,9R,11R,12R,13S,14R)-14-ethyl-7,12,13-trihydroxy-4-(((2R,4R,5S,6S)-5-hydroxy-4-methoxy-4,6-dimethyltetrahydro-2H-pyran-2-yl)oxy)-3,5,7,9,11,13-hexamethyl-2,10-dioxooxacyclotetradecan-6-yl)oxy)-6-methyltetrahydro-2H-pyran-4-yl)-N-methylacetamide], the MIC in [1], in data set [2], in data set [3], in data set [4], in data set [5] and in data set [6] was > 128 µg/mL in each case. In addition, the MIC in data set [7], in data set [8], in data set [9] and in data set [10] was > 128 µg/mL throughout. The “Maximum Inhibition” value in data set [11] is reported as 33%. In addition, in data set [11] (at 100 μM concentration, BEAS-2B), the “IL-8 inhibitory activity compared with erythromycin” value was “more potent inhibitory activity than erythromycin”. Further, in data set [11], the IC10 is 10 µM. The compound also returned an EC50 in data set [12] of 12.1 ± 2.7 µM. In addition, the Emax in data set [12] is 790 ± 50%. This compound gave an LD10 in data set [13] of 100 µM. In addition, the LD50 in data set [14] turned out to be 125 ± 7.1 µM.

For the compound `CC[C@H]1OC(=O)[C@H](C)[C@@H](O[C@H]2C[C@@](C)(OC)[C@@H](O)[C@H](C)O2)[C@H](C)[C@@H](O[C@H]2C[C@@H](NC)C[C@@H](C)O2)[C@@](C)(O)C[C@@H](C)C(=O)[C@H](C)[C@@H](O)[C@]1(C)O` [LY101-25, (3R,4S,5S,6R,9R,11R,12R,13S,14R)-14-ethyl-7,12,13-trihydroxy-4-(((2R,4R,5S,6S)-5-hydroxy-4-methoxy-4,6-dimethyltetrahydro-2H-pyran-2-yl)oxy)-3,5,7,9,11,13-hexamethyl-6-(((2S,4S,6R)-6-methyl-4-(methylamino)tetrahydro-2H-pyran-2-yl)oxy)oxacyclotetradecane-2,10-dione], the MIC in data set [1], in data set [2], in data set [3], in [4], in data set [5] and in [6] was > 128 µg/mL throughout. Further, the MIC in data set [7], in [8], in data set [9] and in [10] was > 128 µg/mL each time. Besides, the “Maximum Inhibition” value in data set [11] is on record as 53%. In data set [11], this compound came in with an IC10 of 1 µM. This compound displayed an EC50 in data set [12] of 1 ± 0.3 µM. Moreover, the Emax in data set [12] stood at 540 ± 110%. Besides, the LD10 in [13] stood at 15 µM. For the same compound, in data set [14], the LD50 is 21.1 ± 5.3 µM.

In the case of `CC[C@H]1OC(=O)[C@H](C)[C@@H](OC2CC(C)(OC)C(O)C(C)O2)[C@H](C)[C@@H](OC2CC(N(C)C)CC(C)O2)[C@@](C)(O)C[C@@H](C)/C(=N\OCOCCOC)[C@H](C)[C@@H](O)[C@]1(C)O` (some centres unmarked) [LY101-39], the MIC in data set [1], in data set [2], in data set [3], in data set [4], in data set [5] and in data set [6] was > 128 µg/mL in each case. Further, the MIC in [7], in data set [8], in [9] and in data set [10] was > 128 µg/mL in each case. In [11], the “Maximum Inhibition” value is on record as 35%. Further, the IC10 in data set [11] came to 20 µM. The same compound displayed an EC50 in data set [12] of 10.1 ± 2.2 µM. Besides, the Emax in data set [12] was determined as 740 ± 80%. In [13], this compound returned an LD10 of 100 µM. Also, in data set [14], the LD50 turned out to be 90.0 ± 18.4 µM.

For the compound `CC[C@H]1OC(=O)[C@H](C)[C@@H](OC2CC(C)(OC)C(O)C(C)O2)[C@H](C)[C@@H](OC2CC(N(C)C)CC(C)O2)[C@@](C)(O)C[C@@H](C)[C@H](O)[C@H](C)[C@@H](O)[C@]1(C)O` (some centres unmarked) [LY101-45], the MIC in data set [1], in [2], in data set [3], in data set [4], in [5] and in data set [6] was > 128 µg/mL in each case. In addition, the MIC in data set [7], in [8], in data set [9] and in data set [10] was > 128 µg/mL throughout. Further, the “Maximum Inhibition” value in data set [11] came to 40%. In addition, the IC10 in data set [11] came out at 1 µM. In [12], this compound gave an EC50 of 1.5 ± 0.7 µM. Besides, in data set [12], the Emax amounted to 530 ± 60%. In [13], this compound had an LD10 of 15 µM. This compound also showed an LD50 in data set [14] of 24.2 ± 5.1 µM.

Usually IC10 stands for the concentration needed for an effect of 10%. Lower therefore signals greater potency. The term EC50 denotes the concentration at which the effect is half-maximal.
